Experimental data reported in the METLIN SMRT retention time set (Domingo-Almenara et al. 2019).

Experiment: gradient 5% acetonitrile 3 min, to 50% in 2 min, to 85% in 15 min, held 3 min, 100 µL/min
Conditions: column: Zorbax Extend-C18 2.1 x 50 mm; eluents: water / acetonitrile, 0.1% formic acid
Procedure, shortened: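 The mobile phases were water and acetonitrile, each with 0.1% formic acid, pumped at 100 μL/min through a Zorbax Extend-C18 column (2.1 × 50 mm, 1.8 μm). Pure standards were injected as mixtures of ~100 molecules and detected by a quadrupole time-of-flight mass spectrometer in positive and negative ionization mode. Retention time came from computationally picked adduct peaks, each inspected by hand.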

RP-LC retention time | SMILES
729 s | Cc1cc2c(=O)n(CC(=O)NCc3ccccc3Cl)c3cccnc3n2n1
862 s | O=C(NC1CC1)C1CCN(S(=O)(=O)c2ccc3[nH]c4c(c3c2)CCCCC4)CC1
872 s | COc1ccccc1-c1nc(Cn2nnc(-c3nc(-c4ccncc4)no3)c2C)c(C)o1
597 s | COc1ccc2nc3oc(C(=O)NCCN4CCN(C)CC4)cc3cc2c1
845 s | O=S(=O)(c1cccn2c(SCc3cc(F)cc(F)c3)nnc12)N1CCCC1
914 s | O=C(NCc1ccco1)c1ccc2c(c1)CCCN2S(=O)(=O)c1ccccc1
711 s | Cc1cc2c(N3CCCC(C(=O)NCc4ccc(N5CCOCC5)cc4)C3)nccc2s1 (configuration not stated)
788 s | O=C(CN1C(=O)COc2ccc(C(=O)N3CCCCC3)cc21)N1CCc2ccccc2C1
1020 s | Cc1c(C(=O)NC(C)C)cnn1-c1ccc(-c2nc(C(C)(C)C)no2)cn1
748 s | O=C(Cn1c(=O)c2cc(C3CC3)nn2c2ncccc21)NCc1ccc(F)cc1
632 s | O=C(NCc1ccccn1)C(=O)Nc1ccc(F)c(Cl)c1
796 s | Cc1noc(C)c1CCNC(=O)CN1C(=O)C2CCCCN2c2ccc(S(=O)(=O)N(C)C)cc21 (configuration not stated)
914 s | O=C(Nc1c2c(nn1-c1cccc(Cl)c1)CSC2)C(=O)N1CCCC1
1020 s | COC(=O)c1ccc2c(=O)n(-c3cccc(OC)c3)c(N3CCSC3)nc2c1
1100 s | COCCCn1c(=O)c2ccccc2n(Cc2nc(-c3cccc(Cl)c3)no2)c1=O
996 s | Cc1csc(-c2ccc(N3CCN(C(=O)c4cc(F)ccc4F)CC3)nc2)n1
1070 s | Cc1nc(-c2csc(S(=O)(=O)NCc3ccc(F)cc3Cl)c2)sc1C
615 s | CN1CCC(OC2CCN(C(=O)c3ccc(Br)cc3)CC2)CC1
838 s | O=C(NCc1cccc(Cl)c1)C1c2ccccc2CCN1C(=O)C1CC1 (configuration not stated)

RP-LC retention time | SMILES
715 s | Cc1ccc2nc(N3CCN(C)CC3)c(-c3noc(-c4ccccc4)n3)cc2c1
658 s | CNCc1ccc(-c2ccc(Cl)cc2Cl)o1
982 s | C=CCSc1nc2ccccc2c2nc(C)nn12
569 s | Cc1ccc(-c2nc3cnccn3c2NCCC(=O)NC(C)c2cccnc2)cc1 (configuration not stated)
908 s | CCOC(=O)c1cccc(N2C=C(C(=O)OC)S(=O)(=O)c3ccc(F)cc32)c1
1080 s | Cc1noc(C)c1-c1ccc(S(=O)(=O)N2CCN(c3ccccc3)CC2)cc1
797 s | CC1CCN(C(=O)C2CC(=O)N(CCc3c[nH]c4ccc(F)cc34)C2)CC1 (configuration not stated)
794 s | Cc1cccc(CNC(=O)CC2CCN(C(=O)c3[nH]c(C)cc3C)CC2)c1
848 s | O=C(COc1ccccc1)N1CCc2nc(-c3ccc(Cl)cc3)ncc2C1
613 s | O=C(Nc1ccccc1C(=O)NCCCN1CCCC1)C1=CSCCO1
711 s | CCc1ccccc1NC(=O)NCC(c1cccnc1)c1cn(C)c2ccccc12 (configuration not stated)
687 s | CN1CCn2cc(S(=O)(=O)Nc3cccc(F)c3)cc2C1=O
638 s | CCc1cccc(NC(=O)Cc2cn3cc(F)ccc3n2)c1
905 s | CC(C)N(Cc1ccccc1)C(=O)C1CCCN(c2ncnc3c2nc2n3CCCCC2)C1 (configuration not stated)
650 s | Cc1ccn2cc(C(=O)N3CCN(c4ccc(F)cc4)CC3)nc2c1
683 s | Clc1ccc(-c2nc(-c3ccc4c(c3)ncn4CCN3CCOCC3)no2)cc1
899 s | CCc1nc(OCC(=O)Nc2ccc(Cl)cc2F)c2ccccc2n1
780 s | CNC(=O)c1sc2nc(-c3cccc(OC)c3)c(NC(C)(C)C)n2c1C
